# Results reported in patent US20030162838A1, “Bactericide, antiseptic, dermally applicable composition, washing composition, antibacterial fiber aggregate, method for eradicating a microorganism, and method for inhibiting the proliferation of a microorgamism” (Ajinomoto Co., Inc., priority 2001, published 2003).
# Entries after “also recorded” stand apart in the source; their conditions may differ.
# How the values were obtained:
# Assay type in all cases: cell-based
# test strains = assay: Antibacterial activity evaluation, overall verdict over all test strains; details: summary of the MIC tables
# Source text: (§1) 4-Guanidinobutyldodecanamide hydrochloride (LAG-HCl) which is a salt of an amide group-containing guanidine derivative and N-cocoyl-L-arginine ethyl ester-DL-pyrrolidone carboxylate which is an N-long chain acyl basic amino acid derivative were examined for their concentrations at which the growth of each test strain was inhibited completely (MIC).
# (§2) The test strains employed were Escherichia coli (ATCC8739), Pseudomonas aeruginosa (ATCC9027), Staphylococcus aureus (ATCC6538), Streptococcus mutans (ATCC35275), Propionibacterium acnes (ATCC6919), Candida albicans (ATCC10231), Aspergillus niger (ATCC16404), Trichophyton mentagrophytes (ATCC11480) and Malassezia furfur (ATCC14521).
# (§3) To obtain an antibacterial activity assay sample, 4-guanidinobutyldodecanamide hydrochloride was dissolved in ethylene glycol at 2% which was used as a mother liquor which was diluted with water subsequently. N-cocoyl-L-arginine ethyl ester-DL-pyrrolidone carboxylate was dissolved in water to prepare a test solution. The respective minimum growth inhibition concentration at which no microbial growth was observed was determined (μg/ml).
# (§4) In order to evaluate the contribution of acyl moiety to the antibacterial activity in amido group-containing guanidine derivatives, 4-guanidinobutyldecanamide acetate (DAG-AcOH), 4-guanidinobutyldodecanamide acetate (LAG-AcOH), 4-guanidinobutymyristilamide acetate (MAG-AcOH), 4-guanidinobutylpalmitylamide acetate (PAG-AcOH) were examined for their concentrations at which the growth of each test strain was inhibited completely (MIC).
# as §2, with “aeruglnosa” for “aeruginosa”, “(ATCC11480),” for “(ATCC11480) and”, “(ATCC14521), MRSA and Cladosporium cladosporioides (IFO6348).” for “(ATCC14521).”
# (§5) The respective minimum growth inhibition concentration at which no microbial growth was observed was determined (Table 4).
# [1] = tested on: Streptococcus mutans (ATCC35275); assay: Antibacterial activity evaluation, agar dilution MIC; details: Muller-Hinton agar medium, 35° C. for 48 hours
# Source text: as §1, §2
# (§6) A bacterial cell suspension of E.coli, P.aeruginosa, S.aureus and S.mutans was obtained by incubation in a sensitive broth medium at 35° C. for 20 hours. The bacterial cell suspension of P.acnes was obtained by anaerobic incubation in a GAM agar medium at 35° C. for 20 hours followed by collecting cells with a platinum loop spatula followed by suspending the cells in a sterilized physiological saline at a cell density at about 10^8 cells/ml. The bacterial cell suspension of C.albicans was obtained by incubation in a potato dextrose agar medium at 25° C. for 48 hours followed by collecting cells with a platinum loop spatula followed by suspending the cells in a sterilized physiological saline at a cell density at about 10^6 cells/ml. The bacterial cell suspension of A.niger was obtained by incubation in a potato dextrose agar medium at 25° C. for 7 days followed by collecting cells with a platinum loop spatula followed by suspending the cells in a sterilized physiological saline followed by filtration through a sterilized gauze to adjust at a cell density at about 10^6 cells/ml. The bacterial cell suspension of T.mentagrophytes was obtained by incubation in a Sabouraud's agar medium at 25° C. for 7 days followed by collecting spores and hyphae with a platinum loop spatula followed by suspending the cells in a sterilized physiological saline followed by pelletizing using a homogenizer to adjust at a cell density at about 10^6 cells/ml. The bacterial cell suspension of M.furfur was obtained by incubation in an YMO agar medium at 25° C. for 7 days followed by suspending the test strain in a sterilized phosphate-buffered physiological saline at a cell density at about 10^6 cells/ml.
# as §3
# (§7) The agar medium (19 ml) was dissolved once and then kept at 50° C., and to this solution 1 ml of each diluted […] was added until reaching the intended concentration and mixed thoroughly and then solidified.
# (§8) Subsequently, the cell suspension of each test strain was sampled using a platinum loop spatula, with which an about 1 cm line was drawn on the antibacterial agent-supplemented agar plate. Each plate was incubated at the respective temperature for the respective time period shown below. […]
# (§9) For E.coli, P.aeruginosa, S.aureus, S.mutans, P.acnes, C.albicans, A.niger, T.mentagrophytes, M.furfur, the respective agar medium indicated in the Table 1 shown above was shown. […]
# [2] = tested on: Candida albicans (ATCC10231); assay: as above; details: Potato dextrose agar medium, 25° C. for 48 hours
# Source text: as §1, §2, §6, §3, §7, §8, §9
# [3] = tested on: Propionibacterium acnes (ATCC6919); assay: as above; details: GAM agar medium, 35° C. for 48 hours (anaerobic incubation)
# Source text: as §1, §2, §6, §3, §7, §8, §9
# [4] = tested on: Trichophyton mentagrophytes (ATCC11480); assay: as above; details: Sabouraud's agar medium, 25° C. for 7 days
# Source text: as §1, §2, §6, §3, §7, §8, §9
# [5] = tested on: Malassezia furfur (ATCC14521); assay: as above; details: YMO agar medium, 25° C. for 7 days
# Source text: as §1, §2, §6, §3, §7, §8, §9
# [6] = tested on: Pseudomonas aeruginosa (ATCC9027); assay: as above; details: Muller-Hinton agar medium, 35° C. for 48 hours
# Source text: as §1, §2, §6, §3, §7, §8, §9
# [7] = tested on: Escherichia coli (ATCC8739); assay: as above; details: Muller-Hinton agar medium, 35° C. for 48 hours
# Source text: as §1, §2, §6, §3, §7, §8, §9
# [8] = tested on: Staphylococcus aureus (ATCC6538); assay: as above; details: Muller-Hinton agar medium, 35° C. for 48 hours
# Source text: as §1, §2, §6, §3, §7, §8, §9
# [9] = tested on: Aspergillus niger (ATCC16404); assay: as above; details: Potato dextrose agar medium, 25° C. for 5 days
# Source text: as §1, §2, §6, §3, §7, §8, §9
# [10] = tested on: Cladosporium cladosporioides (IFO6348); assay: as above; details: Potato dextrose agar medium, 25° C. for 5 days
# Source text: as §4
# as §2, with “aeruglnosa” for “aeruginosa”, “(ATCC11480),” for “(ATCC11480) and”, “(ATCC14521), MRSA and Cladosporium cladosporioides (IFO6348).” for “(ATCC14521).”
# The bacterial cell suspension of Cladosporium cladosporioides was obtained by incubation in a potato dextrose agar medium at 25° C. for 7 days followed by collecting cells with a platinum loop spatula followed by suspending […] the cells in a sterilized physiological saline followed by filtration through a sterilized gauze to adjust at a cell density at about 10^6 cells /ml.
# (§10) To obtain an antibacterial activity assay sample, each compound was dissolved in water to prepare a test solution, which was used as a mother liquor which was diluted with water subsequently.
# as §5
# (§11) The agar medium (19 ml) was dissolved once and then kept at 50° C., and to this solution 1 ml of each diluted […] was added until reaching the intended concentration and mixed thoroughly and solidified.
# (§12) Subsequently, the cell suspension of each test strain was sampled using a platinum loop spatula, with which an about 1 cm line was drawn on the antibacterial agent-supplemented agar plate. Each plate was incubated at the respective temperature for the respective time period shown below.
# MRSA = assay: as above; details: Muller-Hinton agar medium, 35° C. for 48 hours
# Source text: as §4
# as §2, with “aeruglnosa” for “aeruginosa”, “(ATCC11480),” for “(ATCC11480) and”, “(ATCC14521), MRSA and Cladosporium cladosporioides (IFO6348).” for “(ATCC14521).”
# The bacterial cell suspension of MRSA was obtained by incubation in a sensitive broth medium at 35° C. for 20 hours.
# as §10, §5, §11, §12
Molecule,antibacterial activity against any of the test strains (verdict in words) (test strains),"MIC, S. mutans [1] [µg/mL]","MIC, C. albicans [2] [µg/mL]","MIC, P. acnes [3] [µg/mL]","MIC, T. mentagrophytes [4] [µg/mL]","MIC, M. furfur [5] [µg/mL]","MIC, P. aeruginosa [6] [µg/mL]","MIC, E. coli [7] [µg/mL]","MIC, S. aureus [8] [µg/mL]","MIC, A. niger [9] [µg/mL]","MIC, C. cladosporioides [10] [µg/mL]","MIC, MRSA (MRSA) [µg/mL]",antibacterial activity against any of the test strains (verdict in words) (test strains; acetate)
4-Guanidinobutyldodecanamide hydrochloride [LAG-HCl],satisfactory antibacterial activity,5 to 7.5,500 to 750,7.5 to 10,75 to 100,100 to 150,75 to 100,75 to 100,7.5 to 10,200 to 300,–,–,–
"CC(=O)O.CCCCCCCCCC(=O)NCCCCNC(=N)N [DAG-AcOH, 4-guanidinobutyldecanamide acetate]",satisfactory antibacterial activity,20 to 30,300 to 500,30 to 50,75 to 100,50 to 75,200 to 300,150 to 200,30 to 50,300 to 500,200 to 300,50 to 75,–
"CC(=O)O.CCCCCCCCCCCC(=O)NCCCCNC(=N)N [LAG-AcOH, 4-guanidinobutyldodecanamide acetate]",–,5 to 7.5,300 to 500,10 to 15,30 to 50,50 to 75,75 to 100,30 to 50,2 to 3,200 to 300,150 to 200,10 to 15,satisfactory antibacterial activity; also recorded: the best antibacterial activity
"CC(=O)O.CCCCCCCCCCCCCC(=O)NCCCCN=C(N)N [MAG-AcOH, 4-guanidinobutymyristilamide acetate]",satisfactory antibacterial activity,3 to 5,500 to 750,10 to 15,75 to 100,100 to 150,300 to 500,50 to 75,3 to 5,300 to 500,200 to 300,10 to 15,–
"N-cocoyl-L-arginine ethyl ester-DL-pyrrolidone carboxylate [CAE, reference compound]",satisfactory antibacterial activity,5 to 7.5,300 to 500,20 to 30,100 to 150,75 to 100,200 to 300,75 to 100,5 to 7.5,300 to 500,–,–,–
